Tests used:
SGLT2 = molecular target: T1, SGLT2 (Homo sapiens, UniProt P31639); experiment: 14C-AMG uptake in BHK cells transfected with SGLT2 (96-well cell-based assay); details: 2 mM AMG, 37° C., 90 min
T1 construct: expressed in transfected cells
T1 sequence (P31639 1-672): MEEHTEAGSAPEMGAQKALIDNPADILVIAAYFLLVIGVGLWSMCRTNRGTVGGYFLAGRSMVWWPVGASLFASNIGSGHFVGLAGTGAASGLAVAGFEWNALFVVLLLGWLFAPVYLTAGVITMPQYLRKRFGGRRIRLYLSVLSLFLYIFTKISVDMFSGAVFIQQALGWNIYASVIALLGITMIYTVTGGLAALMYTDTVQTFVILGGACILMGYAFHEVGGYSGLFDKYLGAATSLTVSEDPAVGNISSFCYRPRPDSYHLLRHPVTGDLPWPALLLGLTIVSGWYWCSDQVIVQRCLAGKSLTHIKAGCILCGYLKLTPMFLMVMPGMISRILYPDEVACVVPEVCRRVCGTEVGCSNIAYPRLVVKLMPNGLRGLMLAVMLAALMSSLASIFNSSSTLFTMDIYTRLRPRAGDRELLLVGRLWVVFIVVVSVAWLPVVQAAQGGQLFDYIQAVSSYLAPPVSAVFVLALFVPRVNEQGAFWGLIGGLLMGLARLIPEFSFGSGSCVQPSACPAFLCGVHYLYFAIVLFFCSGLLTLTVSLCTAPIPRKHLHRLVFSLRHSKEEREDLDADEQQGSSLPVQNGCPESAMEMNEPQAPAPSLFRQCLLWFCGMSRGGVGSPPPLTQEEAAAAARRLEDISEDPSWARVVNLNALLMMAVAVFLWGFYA
Source text: (§1) The compounds can be tested for their SGLT inhibition properties by means of BHK cells expressing SGLT1 and SGLT2. The production of the cells and the testing can be carried out as described below.
To construct the SGLT2 expression vector (KL224), the SLC5A2 gene (homologous to NM_003041) was amplified from a cDNA library using standard PCR technology and cloned over NheI/XhoI sites into PCI-neo expression vector (Promega) containing neomycin as a selection marker. In this vector, transcription uses the enhancer/promoter of human cytomegalovirus and the SV40 polyadenylation signal.
(§2) The final vector KL224 together with an additional vector containing a dihydrofolate reductase gene as a selection marker was introduced into cells. Transfection into BHK21 cells (ATCC CCL-10), cultivated in DMEM medium (GIBCO/BRL), supplemented with 10% foetal calf serum (FCS) and 20 mM glutamine, was carried out using calcium phosphate transfections according to Graham, F. L. and van der Ebb, A. J. (1973), Virology 52: 456 with 5-20 μg of uncut plasmids for 10^7 cells. Stable transfectants were selected in medium containing 1 mg/ml of G418 (GIBCO/BRL) and 20-5000 nM methotrexate as final concentration, where only cells which expressed the neomycin gene and overexpressed the dhfr gene were able to grow. After growth for 2-3 weeks, the cells were cloned (0.5 cells/well) and the clones were investigated for SGLT expression in radioactivity uptake tests.
(§3) The uptake of ^14C-α-methyl-D-glucopyranoside (AMG) in, for example, Xenopus oocytes injected with the corresponding cRNA has been described in principle (for example Wen-Sen Lee et al. (1994), J. Biol. Chem. 269, 12032-12039; Guofeng You et al. (1995), J. Biol. Chem. 270, 29365-29371).
(§4) A 96-well cell-based assay was developed and adapted to HTS requirements:
(§5) BHK cells (transfected with SGLT1 or SGLT2) were seeded into 96-well microtitre plates (Cultureplates, Perkin Elmer). After at least 24 h, medium was removed, and the cell layer was washed with assay buffer (140 mM NaCl, 2 mM KCl, 1 mM CaCl2, 1 mM MgCl2, 10 mM HEPES, 5 mM Tris, adjusted to pH 7.4 using 1 M KOH). After addition of 40 μl of assay buffer, 50 μl of AMG (50 μM for SGLT1 and 2 mM for SGLT2) in the presence or absence of compounds, the cells were incubated in a total volume of 100 μl at 37° C. for 90 min. Supernatant was removed by suction and discarded. Cells were washed and lysed by addition of 50 μl of water. After 10 min at room temperature, 200 μl of Micrsoscint 40 (Perkin Elmer) were added. The radioactivity was counted in a Topcount microplate scintillation counter (Perkin Elmer). The non-specific uptake was determined in sodium-free assay buffer (266 mM sucrose, 2 mM KCl, 1 mM CaCl2, 1 mM MgCl2, 10 mM HEPES, 5 mM Tris, adjusted to pH 7.4 using 1 M KOH).

SGLT1 = molecular target: T2, SGLT1 (Homo sapiens, UniProt P13866); experiment: 14C-AMG uptake in BHK cells transfected with SGLT1 (96-well cell-based assay); details: 50 μM AMG, 37° C., 90 min
T2 construct: expressed in transfected cells
T2 sequence (P13866 1-664): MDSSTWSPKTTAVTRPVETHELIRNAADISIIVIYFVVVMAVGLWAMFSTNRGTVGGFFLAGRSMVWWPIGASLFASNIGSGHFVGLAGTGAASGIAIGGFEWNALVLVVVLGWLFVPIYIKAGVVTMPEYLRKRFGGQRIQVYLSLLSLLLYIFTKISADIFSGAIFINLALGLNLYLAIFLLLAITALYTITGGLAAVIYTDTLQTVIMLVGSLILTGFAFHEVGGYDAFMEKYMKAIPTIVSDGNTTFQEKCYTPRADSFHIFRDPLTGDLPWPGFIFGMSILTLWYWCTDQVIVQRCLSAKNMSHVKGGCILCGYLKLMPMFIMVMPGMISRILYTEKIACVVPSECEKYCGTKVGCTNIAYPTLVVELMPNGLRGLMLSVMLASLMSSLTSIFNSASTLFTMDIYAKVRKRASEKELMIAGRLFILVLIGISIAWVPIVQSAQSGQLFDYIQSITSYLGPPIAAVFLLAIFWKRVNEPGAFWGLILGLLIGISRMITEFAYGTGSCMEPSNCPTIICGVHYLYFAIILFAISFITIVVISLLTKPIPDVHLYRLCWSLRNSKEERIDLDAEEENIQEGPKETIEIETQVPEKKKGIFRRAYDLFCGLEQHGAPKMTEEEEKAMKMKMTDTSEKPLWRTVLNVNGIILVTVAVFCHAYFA
Source text: as §1
To construct the SGLT1 expression vector (KL225), the SLC5A1 gene (homologous to NM_000343) was amplified from a cDNA library using standard PCR technology and cloned over NheI/XhoI sites into the pcDNA3.1 expression vector (Invitrogen) containing neomycin as a selection marker. In this vector, transcription uses the enhancer/promoter of human cytomegalovirus.
as §2, with “KL225” for “KL224”
as §3, §4, §5

| SMILES | IC50 (SGLT2) | IC50 (SGLT1) |
| --- | --- | --- |
| Cc1cccc(C)c1Cn1c(-c2ccccc2OCC(N)=O)nc2ccccc21 [Compound A2, 2-{2-[1-(2,6-dimethylbenzyl)-1H-benzimidazol-2-yl]-phenoxy}acetamide] | 0.01 to 1 µM | > 10 µM |
| Cc1cccc(C)c1Cn1c(-c2c(F)cccc2OCC(N)=O)nc2ccccc21 [Compound A3, 2-{2-[1-(2,6-Dimethylbenzyl)-1H-benzimidazol-2-yl]-3-fluorophenoxy}acetamide] | 0.01 to 1 µM | – |
| Cc1cccc(C)c1Cn1c(-c2ccccc2OCC(N)=O)nc2ccc(F)cc21 [Compound A4, 2-{2-[1-(2,6-Dimethylbenzyl)-6-fluoro-1H-benzimidazol-2-yl]phenoxy}acetamide] | 0.01 to 1 µM | > 10 µM |
| Cc1cccc(C)c1Cn1c(-c2ccccc2OCC(N)=O)nc2cc(F)c(F)cc21 [Compound A5, 2-{2-[1-(2,6-Dimethylbenzyl)-5,6-difluoro-1H-benzimidazol-2-yl]phenoxy}acetamide] | 0.01 to 1 µM | > 10 µM |
| Cc1cc(C)c(Cn2c(-c3ccccc3OCC(N)=O)nc3ccc(F)cc32)c(C)c1 [Compound A6, 2-{2-[6-Fluoro-1-(2,4,6-trimethylbenzyl)-1H-benzimidazol-2-yl]phenoxy}acetamide] | > 10 µM | > 10 µM |
| Cc1ccccc1Cn1c(-c2ccccc2OCC(N)=O)nc2ccccc21 [Compound A7, 2-{2-[1-(2-Methylbenzyl)-1H-benzimidazol-2-yl]-phenoxy}acetamide] | 1 to 10 µM | > 10 µM |
| NC(=O)COc1ccccc1-c1nc2ccccc2n1Cc1ccccc1 [Compound A8, 2-[2-(1-Benzyl-1H-benzimidazol-2-yl)phenoxy]-acetamide] | > 10 µM | > 10 µM |
| NC(=O)COc1ccccc1-c1nc2ccccc2n1Cc1c(F)cccc1F [Compound A9, 2-{2-[1-(2,6-Difluorobenzyl)-1H-benzimidazol-2-yl]phenoxy}acetamide] | 1 to 10 µM | > 10 µM |
| Cc1cccc(C)c1Cn1c(-c2cccc(F)c2OCC(N)=O)nc2ccccc21 [Compound A10, 2-{2-[1-(2,6-Dimethylbenzyl)-1H-benzimidazol-2-yl]-6-fluorophenoxy}acetamide] | 0.01 to 1 µM | > 10 µM |

Other lines, results leading:

| IC50 (SGLT2) | IC50 (SGLT1) | SMILES |
| --- | --- | --- |
| 1 to 10 µM | – | COc1cccc(-c2nc3ccccc3n2Cc2c(C)cccc2C)c1OCC(N)=O [Compound A11, 2-{2-[1-(2,6-Dimethylbenzyl)-1H-benzimidazol-2-yl]-6-methoxyphenoxy}acetamide] |
| 1 to 10 µM | > 10 µM | Cc1cccc(C)c1Cn1c(-c2cccc(C)c2OCC(N)=O)nc2ccccc21 [Compound A12, 2-{2-[1-(2,6-Dimethylbenzyl)-1H-benzimidazol-2-yl]-6-methylphenoxy}acetamide] |
| 1 to 10 µM | > 10 µM | COc1ccc(-c2nc3ccccc3n2Cc2c(C)cccc2C)c(OCC(N)=O)c1 [Compound A13, 2-{2-[1-(2,6-Dimethylbenzyl)-1H-benzimidazol-2-yl]-5-methoxyphenoxy}acetamide] |
| 0.01 to 1 µM | > 10 µM | Cc1ccc(-c2nc3ccccc3n2Cc2c(C)cccc2C)c(OCC(N)=O)c1 [Compound A14, 2-{2-[1-(2,6-Dimethylbenzyl)-1H-benzimidazol-2-yl]-5-methylphenoxy}acetamide] |
| 0.01 to 1 µM | > 10 µM | COc1cccc(OCC(N)=O)c1-c1nc2ccccc2n1Cc1c(C)cccc1C [Compound A15, 2-{2-[1-(2,6-Dimethylbenzyl)-1H-benzimidazol-2-yl]-3-methoxyphenoxy}acetamide] |
| > 10 µM | – | Cc1cccc(C)c1Cn1c(-c2ncccc2OCC(N)=O)nc2ccccc21 [Compound A16, 2-{2-[1-(2,6-Dimethylbenzyl)-1H-benzimidazol-2-yl]pyridin-3-yloxy}acetamide] |
| 0.01 to 1 µM | > 10 µM | Cc1cccc(C)c1Cn1c(-c2ccc(F)cc2OCC(N)=O)nc2ccccc21 [Compound A17, 2-{2-[1-(2,6-Dimethylbenzyl)-1H-benzimidazol-2-yl]-5-fluorophenoxy}acetamide] |
| > 10 µM | > 10 µM | NC(=O)COc1ccccc1-c1nc2cc(Cl)ccc2n1Cc1c(Cl)cccc1Cl [Compound A18, 2-{2-[5-Chloro-1-(2,6-dichlorobenzyl)-1H-benzimidazol-2-yl]phenoxy}acetamide] |
| 1 to 10 µM | > 10 µM | NC(=O)COc1ccccc1-c1nc2cc(F)ccc2n1Cc1c(Cl)cccc1Cl [Compound A19, 2-{2-[1-(2,6-Dichlorobenzyl)-5-fluoro-1H-benzimidazol-2-yl]phenoxy}acetamide] |
| 1 to 10 µM | > 10 µM | NC(=O)COc1ccccc1-c1nc2ccccc2n1Cc1c(F)cccc1Cl [Compound A20, 2-{2-[1-(2-Chloro-6-fluorobenzyl)-1H-benzimidazol-2-yl]phenoxy}acetamide] |
| 1 to 10 µM | > 10 µM | NC(=O)COc1ccccc1-c1nc2cccc(Cl)c2n1Cc1c(Cl)cccc1Cl [Compound A21, 2-{2-[7-Chloro-1-(2,6-dichlorobenzyl)-1H-benzimidazol-2-yl]phenoxy}acetamide] |
| 0.01 to 1 µM | – | CNc1nnc(-c2ccccc2-c2nc3ccccc3n2Cc2c(C)cccc2C)o1 [Compound A31] |

Source: patent publication US8119675B2, “Benzimidazole derivatives” (Merck Patent GmbH, priority 2007, dated 2012)
